target: FASN enzyme (Homo sapiens, UniProt P49327); test: Enzymatic Assay for FASN Inhibitors; format: biochemical; settings: not given
Outline: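 40 nM FASN preincubated with compound 60 min at 25° C in HEPES pH 7.3 buffer with 0.04% Triton X-100. Then 20 μM acetyl-CoA, 60 μM malonyl-CoA and 100 μM NADPH added for 90 min, quenched with CPM thiol probe; fluorescence 360/530 nm, IC50 by four-parameter fit.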

Sequence of FASN enzyme (P49327 whole entry): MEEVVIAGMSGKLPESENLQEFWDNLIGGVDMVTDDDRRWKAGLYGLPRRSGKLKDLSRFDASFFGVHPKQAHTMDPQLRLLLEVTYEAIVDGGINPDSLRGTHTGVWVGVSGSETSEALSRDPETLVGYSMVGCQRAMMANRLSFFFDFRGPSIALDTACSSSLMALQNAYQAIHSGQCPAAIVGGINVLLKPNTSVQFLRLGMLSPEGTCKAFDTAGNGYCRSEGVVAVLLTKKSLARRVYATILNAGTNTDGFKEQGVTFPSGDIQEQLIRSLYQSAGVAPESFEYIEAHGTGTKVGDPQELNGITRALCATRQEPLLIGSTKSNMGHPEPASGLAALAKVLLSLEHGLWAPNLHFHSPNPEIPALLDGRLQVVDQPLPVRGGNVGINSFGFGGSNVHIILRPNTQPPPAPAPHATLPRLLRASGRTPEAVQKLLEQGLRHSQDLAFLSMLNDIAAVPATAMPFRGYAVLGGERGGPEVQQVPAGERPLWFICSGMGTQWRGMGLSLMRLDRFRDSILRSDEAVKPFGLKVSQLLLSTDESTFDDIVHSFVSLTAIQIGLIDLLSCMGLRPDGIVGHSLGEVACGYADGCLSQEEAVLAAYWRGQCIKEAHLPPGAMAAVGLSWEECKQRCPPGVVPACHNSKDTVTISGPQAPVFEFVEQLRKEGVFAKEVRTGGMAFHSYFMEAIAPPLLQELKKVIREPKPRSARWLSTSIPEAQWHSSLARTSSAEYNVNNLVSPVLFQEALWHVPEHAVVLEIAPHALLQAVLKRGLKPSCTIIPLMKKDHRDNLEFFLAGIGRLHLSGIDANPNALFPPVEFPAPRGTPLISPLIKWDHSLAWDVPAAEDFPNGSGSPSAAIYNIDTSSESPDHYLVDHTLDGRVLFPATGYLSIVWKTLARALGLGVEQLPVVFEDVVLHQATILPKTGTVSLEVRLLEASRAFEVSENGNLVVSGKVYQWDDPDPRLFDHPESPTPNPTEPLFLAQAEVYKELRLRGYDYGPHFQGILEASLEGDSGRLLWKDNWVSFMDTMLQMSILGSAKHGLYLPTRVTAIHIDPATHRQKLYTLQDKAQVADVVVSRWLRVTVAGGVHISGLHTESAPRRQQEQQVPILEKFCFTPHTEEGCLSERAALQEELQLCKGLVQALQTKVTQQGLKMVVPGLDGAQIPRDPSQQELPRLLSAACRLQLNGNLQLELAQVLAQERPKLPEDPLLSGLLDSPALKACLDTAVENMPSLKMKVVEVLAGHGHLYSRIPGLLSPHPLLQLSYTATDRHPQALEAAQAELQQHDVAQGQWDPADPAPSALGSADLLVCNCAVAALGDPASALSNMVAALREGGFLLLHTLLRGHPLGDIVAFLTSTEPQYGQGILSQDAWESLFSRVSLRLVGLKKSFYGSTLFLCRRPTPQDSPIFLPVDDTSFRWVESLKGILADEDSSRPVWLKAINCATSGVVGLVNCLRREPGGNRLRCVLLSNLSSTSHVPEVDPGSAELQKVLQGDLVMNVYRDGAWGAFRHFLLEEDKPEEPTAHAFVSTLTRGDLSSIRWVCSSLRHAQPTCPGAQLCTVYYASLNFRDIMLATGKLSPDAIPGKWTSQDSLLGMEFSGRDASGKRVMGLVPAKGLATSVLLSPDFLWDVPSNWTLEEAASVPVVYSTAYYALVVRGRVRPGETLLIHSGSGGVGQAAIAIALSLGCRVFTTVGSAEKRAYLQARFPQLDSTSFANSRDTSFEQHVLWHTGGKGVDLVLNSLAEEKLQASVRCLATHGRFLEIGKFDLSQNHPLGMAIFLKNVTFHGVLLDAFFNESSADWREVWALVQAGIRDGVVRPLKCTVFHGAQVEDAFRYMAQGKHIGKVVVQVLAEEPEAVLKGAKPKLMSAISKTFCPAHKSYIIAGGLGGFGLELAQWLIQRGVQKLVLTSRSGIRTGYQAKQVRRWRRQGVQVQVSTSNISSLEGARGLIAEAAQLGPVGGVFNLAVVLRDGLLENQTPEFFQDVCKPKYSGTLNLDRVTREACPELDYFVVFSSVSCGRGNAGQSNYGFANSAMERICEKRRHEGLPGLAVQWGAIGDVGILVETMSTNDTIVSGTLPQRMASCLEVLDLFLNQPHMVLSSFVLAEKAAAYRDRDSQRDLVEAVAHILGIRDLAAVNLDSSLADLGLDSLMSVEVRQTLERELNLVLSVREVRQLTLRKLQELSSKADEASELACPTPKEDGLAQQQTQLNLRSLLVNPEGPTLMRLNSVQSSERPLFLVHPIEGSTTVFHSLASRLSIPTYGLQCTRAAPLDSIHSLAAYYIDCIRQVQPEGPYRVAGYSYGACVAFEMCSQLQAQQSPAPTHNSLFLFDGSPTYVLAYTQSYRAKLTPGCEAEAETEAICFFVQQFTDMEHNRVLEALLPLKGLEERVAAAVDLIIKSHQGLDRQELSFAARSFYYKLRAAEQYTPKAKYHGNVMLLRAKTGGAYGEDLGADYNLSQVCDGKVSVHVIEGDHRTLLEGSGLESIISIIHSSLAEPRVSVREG

SMILES	IC50
Nc1n[nH]c2ccc(-c3ccc(C(=O)N4CCN(C(=O)C5(O)CC5)CC4)cc3)cc12 [1-{4-[4-(3-amino-1H-indazol-5-yl)benzoyl]piperazine-1-carbonyl}cyclopropan-1-ol]	< 500 nM
CNC(=O)c1cccc(-c2ccc(C(=O)N3CCN(C(=O)C4(O)CC4)CC3)cc2)c1 [3-{4-[4-(1-hydroxycyclopropanecarbonyl)piperazine-1-carbonyl]phenyl}-N-methylbenzamide]	< 500 nM
O=C(c1ccc(N2CCc3c(F)cccc32)cc1)N1CCN(C(=O)C2(O)CC2)CC1 [1-{4-[4-(4-fluoro-2,3-dihydro-1H-indol-1-yl)benzoyl]piperazine-1-carbonyl}cyclopropan-1-ol]	< 500 nM
O=C(Nc1cccc(-c2ccc(C(=O)N3CCN(C(=O)C4(O)CC4)CC3)cc2)c1)C1CC1	< 500 nM
O=C(c1ccc(-c2ccc3cc(F)ccc3n2)c(F)c1F)N1CCN(C(=O)C2(O)CC2)CC1 [1-[(4-{[2,3-difluoro-4-(6-fluoroquinolin-2-yl)phenyl]carbonyl}piperazin-1-yl)carbonyl]cyclopropan-1-ol]	< 500 nM
O=C(c1ccc(-n2cnc3ccccc32)cc1)N1CCN(C(=O)C2(O)CC2)CC1 [1-{4-[4-(1H-1,3-benzodiazol-1-yl)benzoyl]piperazine-1-carbonyl}cyclopropan-1-ol]	< 500 nM
O=C(c1ccc(-c2ccc3ncn(CCO)c3c2)cc1)N1CCN(C(=O)C2(O)CC2)CC1 [1-(4-{4-[1-(2-hydroxyethyl)-1H-1,3-benzodiazol-6-yl]benzoyl}piperazine-1-carbonyl)cyclopropan-1-ol]	< 500 nM
Cc1nnc(-c2cccc(-c3ccc(C(=O)N4CCN(C(=O)C5(O)CC5)CC4)cc3)c2)s1 [1-(4-{4-[3-(5-methyl-1,3,4-thiadiazol-2-yl)phenyl]benzoyl}piperazine-1-carbonyl)cyclopropan-1-ol]	< 500 nM
O=C(c1ccc(N2CCc3cc(F)ccc32)cc1)N1CCN(C(=O)C2(O)CC2)CC1 [1-{4-[4-(5-fluoro-2,3-dihydro-1H-indol-1-yl)benzoyl]piperazine-1-carbonyl}cyclopropan-1-ol]	< 500 nM
O=C(c1ccc(-c2nc3ccccn3c2Cl)cc1F)N1CCN(C(=O)C2(O)CC2)CC1 [1-[4-(4-{3-chloroimidazo[1,2-a]pyridin-2-yl}-2-fluorobenzoyl)piperazine-1-carbonyl]cyclopropan-1-ol]	< 500 nM
O=C(c1ccc(-c2nc3ccc(F)cc3o2)cc1F)N1CCN(C(=O)C2(O)CC2)CC1 [1-{4-[2-fluoro-4-(6-fluoro-1,3-benzoxazol-2-yl)benzoyl]piperazine-1-carbonyl}cyclopropan-1-ol]	< 500 nM
Cn1ccc2cc(-c3ccc(C(=O)N4CCN(C(=O)C5(O)CC5)CC4)cc3)ccc21 [1-[(4-{[4-(1-methyl-1H-indol-5-yl)phenyl]carbonyl}piperazin-1-yl)carbonyl]cyclopropan-1-ol]	< 500 nM
O=C(c1ccc(-c2cc3ccccc3[nH]2)cc1)N1CCN(C(=O)C2(O)CC2)CC1 [1-[(4-{[4-(1H-indol-2-yl)phenyl]carbonyl}piperazin-1-yl)carbonyl]cyclopropan-1-ol]	< 500 nM
O=C(c1ccc(-c2nc3ccc(Cl)cc3o2)cc1Cl)N1CCN(C(=O)C2(O)CC2)CC1 [1-{4-[2-chloro-4-(6-chloro-1,3-benzoxazol-2-yl)benzoyl]piperazine-1-carbonyl}cyclopropan-1-ol]	< 500 nM
C[C@H]1CN(C(=O)C2(N)CC2)CCN1C(=O)c1ccc(-c2ccc3c(c2)ncn3C)cc1 [1-[(3S)-3-methyl-4-[4-(1-methyl-1H-1,3-benzodiazol-5-yl)benzoyl]piperazine-1-carbonyl]cyclopropan-1-amine]	< 500 nM
O=C(c1ccc(-c2ccc3c(C4CC4)n[nH]c3c2)cc1)N1CCN(C(=O)C2(O)CC2)CC1 [1-{4-[4-(3-cyclopropyl-1H-indazol-6-yl)benzoyl]piperazine-1-carbonyl}cyclopropan-1-ol]	< 500 nM
C[C@@H]1CN(C(=O)c2ccc(-c3nc4ccc(F)cc4o3)cc2)C[C@H](C)N1C(=O)C1(O)CC1	< 500 nM
Cc1nn(-c2ccc(C(=O)N3CCN(C(=O)C4(O)CC4)CC3)c(F)c2)c2ccccc12	< 500 nM
C[C@H]1CN(C(=O)c2ccc(-c3ccc4c(c3)ncn4C)cc2F)CCN1C(=O)C1(O)CC1 [1-[(2S)-4-[2-fluoro-4-(1-methyl-1H-1,3-benzodiazol-5-yl)benzoyl]-2-methylpiperazine-1-carbonyl]cyclopropan-1-ol]	< 500 nM
O=C(c1ccc(-c2nc3ccc(Cl)cc3o2)c(F)c1)N1CCN(C(=O)C2(O)CC2)CC1 [1-{4-[4-(6-chloro-1,3-benzoxazol-2-yl)-3-fluorobenzoyl]piperazine-1-carbonyl}cyclopropan-1-ol]	< 500 nM
CC(C)OC(=O)Nc1cccc(-c2ccc(C(=O)N3CCN(C(=O)C4(O)CC4)CC3)cc2)c1 [propan-2-yl N-(3-{4-[4-(1-hydroxycyclopropanecarbonyl)piperazine-1-carbonyl]phenyl}phenyl)carbamate]	< 500 nM
O=C(c1ccc(-c2cccc(S(=O)(=O)NC3CC3)c2)cc1)N1CCN(C(=O)C2(O)CC2)CC1 [N-cyclopropyl-3-[4-({4-[(1-hydroxycyclopropyl)carbonyl]piperazin-1-yl}carbonyl)phenyl]benzene-1-sulfonamide]	< 500 nM

The remaining lines, values ahead:

IC50	SMILES
< 500 nM	Cc1n[nH]c2cc(-c3ccc(C(=O)N4CCN(C(=O)C5(N)CC5)CC4)cc3)ccc12 [1-{4-[4-(3-methyl-1H-indazol-6-yl)benzoyl]piperazine-1-carbonyl}cyclopropan-1-amine]
< 500 nM	C[C@H]1CN(C(=O)C2(O)CC2)CCN1C(=O)c1ccc(-c2ccc(Cl)cc2F)cc1 [1-[(3S)-4-[4-(4-chloro-2-fluorophenyl)benzoyl]-3-methylpiperazine-1-carbonyl]cyclopropan-1-ol]
< 500 nM	NC1(C(=O)N2CCN(C(=O)c3ccc(-c4cc(Cl)ccc4F)cc3)CC2)CC1 [1-{4-[4-(5-chloro-2-fluorophenyl)benzoyl]piperazine-1-carbonyl}cyclopropan-1-amine]
< 500 nM	C[C@H]1CN(C(=O)c2ccc(-c3ccc(Cl)cc3F)cc2)CCN1C(=O)C1(O)CC1
< 500 nM	O=C(c1ccc(-c2ccc(Cl)cc2F)c(Cl)c1)N1CCN(C(=O)C2(O)CC2)CC1 [1-{4-[3-chloro-4-(4-chloro-2-fluorophenyl)benzoyl]piperazine-1-carbonyl}cyclopropan-1-ol]
< 500 nM	Cn1ncc2ccc(-c3ccc(C(=O)N4CCN(C(=O)C5(N)CCC5)CC4)cc3)cc21 [1-{4-[4-(1-methyl-1H-indazol-6-yl)benzoyl]piperazine-1-carbonyl}cyclobutan-1-amine]
< 500 nM	Cc1n[nH]c2cccc(-c3ccc(C(=O)N4CCN(C(=O)C5(O)CC5)CC4)cc3)c12 [1-{4-[4-(3-methyl-1H-indazol-4-yl)benzoyl]piperazine-1-carbonyl}cyclopropan-1-ol]
< 500 nM	O=C(c1ccc(-c2cccc(Cl)c2)cc1)N1CCN(C(=O)C2(O)CC2)CC1 [1-[(4-{[4-(3-chlorophenyl)phenyl]carbonyl}piperazin-1-yl)carbonyl]cyclopropan-1-ol]
< 500 nM	O=C(c1ccc(-c2cc(Cl)ccc2F)c(Cl)c1)N1CCN(C(=O)C2(O)CC2)CC1 [1-{4-[3-chloro-4-(5-chloro-2-fluorophenyl)benzoyl]piperazine-1-carbonyl}cyclopropan-1-ol]

same assay, conditions: FASN enzymatic assay; Table 2-2

SMILES	IC50
O=C(c1ccc(-c2nccc3occc23)cc1)N1CCN(C(=O)C2(O)CC2)CC1 [1-({4-[(4-{furo[3,2-c]pyridin-4-yl}phenyl)carbonyl]piperazin-1-yl}carbonyl)cyclopropan-1-ol]	500 to 5000 nM
O=C(c1ccc(-c2ccc3nccn3c2)cc1)N1CCN(C(=O)C2(O)CC2)CC1 [1-({4-[(4-{imidazo[1,2-a]pyridin-6-yl}phenyl)carbonyl]piperazin-1-yl}carbonyl)cyclopropan-1-ol]	500 to 5000 nM
COc1cc(C(=O)N2CCN(C(=O)C3(O)CC3)CC2)ccc1-c1ccc2ncccc2c1 [1-[(4-{[3-methoxy-4-(quinolin-6-yl)phenyl]carbonyl}piperazin-1-yl)carbonyl]cyclopropan-1-ol]	500 to 5000 nM
O=C(c1ccc(-c2ccc3[nH]c(=O)oc3c2)cc1)N1CCN(C(=O)C2(O)CC2)CC1 [6-[4-({4-[(1-hydroxycyclopropyl)carbonyl]piperazin-1-yl}carbonyl)phenyl]-2,3-dihydro-1,3-benzoxazol-2-one]	500 to 5000 nM

The next lines start with the values.

IC50	SMILES
500 to 5000 nM	O=C(c1ccc(-c2cnc3ccc(Cl)cn23)cc1)N1CCN(C(=O)C2(O)CC2)CC1 [1-({4-[(4-{6-chloroimidazo[1,2-a]pyridin-3-yl}phenyl)carbonyl]piperazin-1-yl}carbonyl)cyclopropan-1-ol]
500 to 5000 nM	Cc1cccc(-c2ccc(C(=O)N3CCN(C(=O)C4(O)CC4)CC3)cc2)c1F [1-[(4-{[4-(2-fluoro-3-methylphenyl)phenyl]carbonyl}piperazin-1-yl)carbonyl]cyclopropan-1-ol]
500 to 5000 nM	O=C(c1ccc(-c2ccc(Cl)cc2F)cn1)N1CCN(C(=O)C2(O)CC2)CC1 [1-[(4-{[5-(4-chloro-2-fluorophenyl)pyridin-2-yl]carbonyl}piperazin-1-yl)carbonyl]cyclopropan-1-ol]
500 to 5000 nM	O=C(c1ccc(-c2nc3cc(F)ccc3[nH]2)cc1)N1CCN(C(=O)C2(O)CC2)CC1 [1-[(4-{[4-(5-fluoro-1H-1,3-benzodiazol-2-yl)phenyl]carbonyl}piperazin-1-yl)carbonyl]cyclopropan-1-ol]
500 to 5000 nM	O=C(c1ccc(-c2ccc(Cl)cc2F)cc1)N1CCN(C(=O)C2(O)CC2)C[C@H]1CO [1-{[(3S)-4-{[4-(4-chloro-2-fluorophenyl)phenyl]carbonyl}-3-(hydroxymethyl)piperazin-1-yl]carbonyl}cyclopropan-1-ol]

same assay, conditions: FASN enzymatic assay; Table 2-3

SMILES	IC50
Cc1ccc(-c2ccc(C(=O)N3CCN(C(=O)C4(O)CC4)CC3)cc2)c(F)c1 [1-[(4-{[4-(2-fluoro-4-methylphenyl)phenyl]carbonyl}piperazin-1-yl)carbonyl]cyclopropan-1-ol]	≥ 5000 nM
O=C(CO)N1CCN(C(=O)c2ccc(-c3ccccc3)cc2)CC1 [2-hydroxy-1-{4-[(4-phenylphenyl)carbonyl]piperazin-1-yl}ethan-1-one]	≥ 5000 nM

From patent US10457655B2, “Compounds and compositions for inhibition of FASN” (FORMA Therapeutics, Inc., priority 2013, dated 2019)
